Reference: ChEMBL document CHEMBL1201862, “PubChem BioAssay data set” (2004)
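Protocol summary: plate cells (96-well), add compound at 5 concentrations, incubate 48 h, interpolate endpoints linearly. Abbreviation: GI50, concentration required for 50% inhibition of growth.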 Calls of active or inactive are those of the source. No stated cut-off is given here; in the data, active = GI50 up to about 1.1 µM and inactive = higher.

Assays:
Assay in all cases: NCI-60 cell line screen, 48 h
[1] = test system: MDA-MB-435
[2] = test system: SK-MEL-5
[3] = test system: MDA-MB-231
[4] = test system: HCT-15
[5] = test system: SN12C
[6] = test system: NCI/ADR-RES
[7] = test system: KM12
[8] = test system: CCRF-CEM
[9] = test system: SF-539
[10] = test system: A549
[11] = test system: TK-10
[12] = test system: NCI-H522
[13] = test system: HT-29
[14] = test system: A498
[15] = test system: SR
[16] = test system: UACC-62
[17] = test system: SK-OV-3
[18] = test system: U-251
[19] = test system: NCI-H460
[20] = test system: EKVX
[21] = test system: SK-MEL-2
[22] = test system: T47D
[23] = test system: OVCAR-5
[24] = test system: OVCAR-3
[25] = test system: COLO 205
[26] = test system: SF-295
[27] = test system: HCC 2998
[28] = test system: DU-145
[29] = test system: LOX IMVI
[30] = test system: SK-MEL-28
[31] = test system: K562
[32] = test system: HCT-116
[33] = test system: RXF 393
[34] = test system: SF-268
[35] = test system: Hs-578T
[36] = test system: NCI-H23
[37] = test system: HL-60
[38] = test system: CAKI-1
[39] = test system: MDA-N
[40] = test system: SNB-19
[41] = test system: IGROV-1
[42] = test system: ACHN
[43] = test system: Malme-3M
[44] = test system: HOP-62
[45] = test system: SW-620
[46] = test system: M14
[47] = test system: SNB-75
[48] = test system: NCI-H226
[49] = test system: OVCAR-8
[50] = test system: UO-31
[51] = test system: OVCAR-4
[52] = test system: PC-3
[53] = test system: HOP-92
[54] = test system: 786-0
[55] = test system: RPMI-8226
[56] = test system: MCF7
[57] = test system: MOLT-4
[58] = test system: UACC-257

Cn1c(=O)ccc2c(=O)c3ccccc3oc21
GI50 [1]: > 100 µM (inactive) | GI50 [2]: > 100 µM (inactive) | GI50 [3]: > 100 µM (inactive) | GI50 [4]: > 100 µM | GI50 [5]: > 100 µM (inactive) | GI50 [6]: > 100 µM (inactive) | GI50 [7]: > 100 µM (inactive) | GI50 [8]: > 100 µM (inactive) | GI50 [9]: > 100 µM (inactive) | GI50 [10]: > 100 µM (inactive) | GI50 [11]: > 100 µM (inactive) | GI50 [12]: > 100 µM (inactive) | GI50 [13]: > 100 µM (inactive) | GI50 [14]: > 100 µM (inactive) | GI50 [15]: > 100 µM (inactive) | GI50 [16]: > 100 µM (inactive) | GI50 [17]: > 100 µM (inactive) | GI50 [18]: > 100 µM (inactive) | GI50 [19]: > 100 µM (inactive) | GI50 [20]: > 100 µM (inactive) | GI50 [21]: > 100 µM (inactive) | GI50 [22]: > 100 µM (inactive) | GI50 [23]: > 100 µM (inactive) | GI50 [24]: > 100 µM (inactive) | GI50 [25]: > 100 µM (inactive) | GI50 [26]: > 100 µM (inactive) | GI50 [27]: > 100 µM (inactive) | GI50 [28]: > 100 µM (inactive) | GI50 [29]: > 100 µM (inactive) | GI50 [30]: > 100 µM (inactive) | GI50 [31]: > 100 µM (inactive) | GI50 [32]: > 100 µM (inactive) | GI50 [33]: 64.9 µM (inactive) | GI50 [34]: > 100 µM (inactive) | GI50 [35]: > 100 µM (inactive) | GI50 [36]: > 100 µM (inactive) | GI50 [37]: > 100 µM (inactive) | GI50 [38]: > 100 µM (inactive) | GI50 [39]: > 100 µM (inactive) | GI50 [40]: > 100 µM (inactive) | GI50 [41]: > 100 µM (inactive) | GI50 [42]: > 100 µM (inactive) | GI50 [43]: > 100 µM (inactive) | GI50 [44]: > 100 µM (inactive) | GI50 [45]: > 100 µM (inactive) | GI50 [46]: > 100 µM (inactive) | GI50 [47]: 0.029 µM (active) | GI50 [48]: > 100 µM (inactive) | GI50 [49]: > 100 µM (inactive) | GI50 [50]: 4.68 µM (inactive) | GI50 [51]: > 100 µM (inactive) | GI50 [52]: > 100 µM (inactive) | GI50 [53]: 67.6 µM (inactive)

COc1ccc(/C=C2\N=C3NC(=O)C(N4CCOCC4)=C(N)N3C2=O)cc1
GI50 [1]: > 100 µM (inactive) | GI50 [2]: > 100 µM (inactive) | GI50 [3]: > 100 µM (inactive) | GI50 [4]: > 100 µM | GI50 [5]: > 100 µM (inactive) | GI50 [6]: > 100 µM (inactive) | GI50 [7]: > 100 µM (inactive) | GI50 [8]: > 100 µM (inactive) | GI50 [9]: > 100 µM (inactive) | GI50 [10]: > 100 µM (inactive) | GI50 [11]: 53.7 µM (inactive) | GI50 [12]: 75.3 µM (inactive) | GI50 [13]: > 100 µM (inactive) | GI50 [14]: > 100 µM (inactive) | GI50 [15]: 29.9 µM (inactive) | GI50 [54]: 53 µM (inactive) | GI50 [17]: > 100 µM (inactive) | GI50 [18]: 53.7 µM (inactive) | GI50 [20]: 69.7 µM (inactive) | GI50 [22]: > 100 µM (inactive) | GI50 [23]: > 100 µM (inactive) | GI50 [25]: > 100 µM (inactive) | GI50 [26]: 59.7 µM (inactive) | GI50 [27]: > 100 µM (inactive) | GI50 [28]: > 100 µM (inactive) | GI50 [29]: > 100 µM (inactive) | GI50 [30]: > 100 µM (inactive) | GI50 [31]: 6.7 µM (inactive) | GI50 [32]: > 100 µM (inactive) | GI50 [33]: 46.7 µM (inactive) | GI50 [34]: 76.2 µM (inactive) | GI50 [35]: 35.7 µM (inactive) | GI50 [55]: > 100 µM (inactive) | GI50 [56]: > 100 µM (inactive) | GI50 [36]: > 100 µM (inactive) | GI50 [37]: 48.9 µM (inactive) | GI50 [38]: > 100 µM (inactive) | GI50 [39]: > 100 µM (inactive) | GI50 [40]: 96.8 µM (inactive) | GI50 [41]: 85.5 µM (inactive) | GI50 [42]: 75.9 µM (inactive) | GI50 [43]: > 100 µM (inactive) | GI50 [45]: > 100 µM (inactive) | GI50 [46]: > 100 µM (inactive) | GI50 [57]: > 100 µM (inactive) | GI50 [47]: 24.8 µM (inactive) | GI50 [48]: > 100 µM (inactive) | GI50 [49]: > 100 µM (inactive) | GI50 [50]: > 100 µM (inactive) | GI50 [51]: 31.8 µM (inactive) | GI50 [53]: > 100 µM (inactive) | GI50 [58]: > 100 µM (inactive)

Cn1/c(=N\c2ccccc2[N+](=O)[O-])sc2ccccc21
GI50 [1]: > 100 µM (inactive) | GI50 [2]: 19.2 µM (inactive) | GI50 [3]: 6.1 µM (inactive) | GI50 [4]: 2.61 µM | GI50 [5]: 84.1 µM (inactive) | GI50 [6]: 95.9 µM (inactive) | GI50 [7]: 1.6 µM (inactive) | GI50 [8]: > 100 µM (inactive) | GI50 [9]: 28.2 µM (inactive) | GI50 [10]: > 100 µM (inactive) | GI50 [11]: 8.93 µM (inactive) | GI50 [12]: 9.29 µM (inactive) | GI50 [13]: > 100 µM (inactive) | GI50 [14]: 54.8 µM (inactive) | GI50 [15]: > 100 µM (inactive) | GI50 [16]: 30.5 µM (inactive) | GI50 [54]: 30.7 µM (inactive) | GI50 [17]: 23 µM (inactive) | GI50 [18]: 36.6 µM (inactive) | GI50 [19]: 50.2 µM (inactive) | GI50 [20]: 8.61 µM (inactive) | GI50 [21]: 33.7 µM (inactive) | GI50 [22]: 3.95 µM (inactive) | GI50 [23]: 22 µM (inactive) | GI50 [25]: > 100 µM (inactive) | GI50 [26]: 42.6 µM (inactive) | GI50 [27]: 30.3 µM (inactive) | GI50 [28]: > 100 µM (inactive) | GI50 [29]: > 100 µM (inactive) | GI50 [30]: 89.7 µM (inactive) | GI50 [31]: > 100 µM (inactive) | GI50 [32]: 72.8 µM (inactive) | GI50 [33]: 30.1 µM (inactive) | GI50 [34]: 70.5 µM (inactive) | GI50 [35]: 16.5 µM (inactive) | GI50 [55]: > 100 µM (inactive) | GI50 [36]: 26 µM (inactive) | GI50 [37]: > 100 µM (inactive) | GI50 [38]: 43.9 µM (inactive) | GI50 [39]: > 100 µM (inactive) | GI50 [40]: 36.1 µM (inactive) | GI50 [41]: 5.4 µM (inactive) | GI50 [42]: 61.5 µM (inactive) | GI50 [43]: > 100 µM (inactive) | GI50 [44]: 20.6 µM (inactive) | GI50 [45]: > 100 µM (inactive) | GI50 [57]: > 100 µM (inactive) | GI50 [47]: 18.4 µM (inactive) | GI50 [48]: 34.9 µM (inactive) | GI50 [49]: 49.9 µM (inactive) | GI50 [50]: > 100 µM (inactive) | GI50 [51]: 16.1 µM (inactive) | GI50 [52]: 66.1 µM (inactive) | GI50 [53]: 14.7 µM (inactive) | GI50 [58]: 29.9 µM (inactive)
